Measured values from patent US11215619B2 (priority 2019, dated 2022).

Tests used:
[1] = target: OTABA; test: Dye displacement from OTABA mediated by OTA (label-free aptasensor); type: binding; settings: for Kd: apparent, OTA binding to OTABA from dye displacement, 0.5 μM OTABA; for % D (6 → 0.5 μM): OTA up to 1.5 equiv
Method: For dye displacement from the aptamer mediated by OTA, a 2:1 dye:OTABA mixture (12:6 μM) was treated with aliquots of OTA up to 1.5 equiv. (9 μM). Under these conditions, ThT was poorly displaced from the aptamer, displaying only a 6% drop in emission intensity (FIG. 17d). […] Significant differences in the ability of OTA to displace the dyes from the aptamer was not anticipated. Furthermore, given the relative binding affinities of the dyes for OTABA, ThT was expected to display the greatest ease of displacement. Clearly the ability of OTA to displace the dyes from the aptamer had little to do with the dye aptamer binding affinity.
To determine the analytical potential of the dye displacement assay, the 2:1 dye:OTABA starting mixture was optimized and the OTA titrations were repeated using 0.5 μM OTABA in the presence of 1 μM dye. […] Additions of OTA up to 1.5 equiv (0.75 μM) caused 93% BtC displacement, as evidenced by the loss of emission intensity for the aptamer-bound BtC at 640 nm, coupled with the loss of the ET band at 256 nm for BtC stacking with the G-tetrad of the folded aptamer.
From the OTA titrations involving hemicyanine dye displacement (4QI and BtC), a limit of detection (LoD)˜15 nM (6 ng/mL) and a limit of quantification (LoQ)˜45-47 nM (˜18 ng/mL) were determined (R^2=0.95-0.99). In contrast, an LoD of 73 nM (29 ng/mL) and LoQ of 222 nM (89 ng/mL, R^2=0.85) was determined from the ThT displacement data.

[2] = Photophysical characterization of 4QI (fluorescence spectrometry); type: physicochemical
Method: (§1) All fluorescence excitation and emission measurements were made at 25.00° C. using a PTI Alphascan-2 spectrofluorometer equipped with a 1×4 Multicell Block Peltier and temperature controller, with baseline correction and variable slit widths as specified. All fluorescence excitation spectra were recorded at the maximum emission wavelength of the fluorophore and emission spectra were recorded at the maximum excitation wavelength.
4QI-alcohol and 4QI-DMT contain the same fluorophore such that characterization of 4QI-alcohol is representative of the solvatochromic and photophysical capacity of the 4QI fluorophore. […] Excitation and emission in the visible region as opposed to the ultraviolet (UV) region is favorable because the dye can be excited using a visible lamp rather than a more expensive UV lamp.

[3] = Kinetic studies of 4QI under oligonucleotide deprotection conditions; type: physicochemical
Method: Recall that standard conditions for oligonucleotide deprotection involve heating to 55° C. for 4 h in ammonium hydroxide (Table 3). […] Therefore, all mTBA were deprotected under UltraMild conditions.

[4] = Photostability of 4QI within a DNA helix; type: physicochemical; settings: 6-month period, aqueous buffer pH 7.4
From the text: The 4QI dye was attached to a glycerol backbone and converted into a phosphoramidite for site-specific incorporation into DNA using solid phase DNA synthesis.

[5] = Solvatochromic studies of 4QI; type: physicochemical
Method: as §1
Solvatochromatic studies were completed using quartz cells (Hellma 101-QS) with a light path of 10 mm. A 100 μM stock solution of 4QI was prepared in reagent grade DMSO. Using the stock solution, 3 μM solutions of 4QI were prepared in a series of solvents: MQ water, methanol, acetonitrile, THF, chloroform and isopropyl alcohol. After mixing by inversion (×20), emission and excitation spectra for each sample were recorded as described using slit widths of 5 nm.

[6] = target: OTABA; test: Fluorescent titration of dye binding to OTABA; settings: for Kd: apparent, dye binding to OTABA; for λem / λex: dye bound to OTABA; for λex (value in parentheses): footnote not given, line below the bound value
Method: Dye interaction with OTABA and subsequent displacement by OTA was initially investigated using fluorescence spectroscopy (FIG. 17) in the previously optimized OTA binding buffer. (Fadock et al., 2017) Additions of OTABA (up to 1.5 equiv.) to the dye (6 μM) caused dose-dependent increases in ligand emission at 488 nm for ThT (240-fold increase at 1.5 equiv. OTABA, FIG. 17a), 605 nm for the 4QI (42-fold, FIG. 17b) and 640 nm for BtC (8-fold, FIG. 17c).

[7] = target: thrombin (Homo sapiens, UniProt P00734); settings: isothermal titration calorimetry (Pagano et al. 2008); cited from earlier work
[8] = type: physicochemical; settings: 6 μM oligonucleotide, 10% K+ buffer
[9] = first value: 6 μM OTABA, 12 μM dye
[10] = second value: 0.5 μM OTABA, 1 μM dye

In the case of `C[n+]1ccc(/C=C/c2cn(CCCO)c3ccccc23)c2ccccc21.[I-]` [4QI, 4-(2-(1-(3-hydroxypropyl)-1H-indol-3-yl)vinyl)-1-methylquinolin-1-ium iodide], the Kd ([1]; 1 μM dye) is reported as 356 nM, the “% D (6 → 0.5 μM)” value [1, 9] is reported as 28% and the “% D (6 → 0.5 μM)” value [1, 10] is reported as 47%. For the same molecule, the Stokes shift [2] was 104 nm, the extinction coefficient [2] was 26,660 L/(mol·cm) and the stokes shift [2] was 90 nm. For the same molecule, the fluorescence emission ([2]; following excitation at 500 nm) was 590 nm, the λem maxima ([2]; free in H2O) was 580 nm and the λex maxima ([2]; free in H2O) was 520 nm. The “time to complete bleaching of 4QI absorbance” value ([3]; Standard deprotection conditions) was ≤ 6.5 h, the “time to complete bleaching of 4QI absorbance” value ([3]; UltraFast deprotection conditions) was ≤ 0.05 h and the “decrease of fluorescence intensity” value ([3]; UltraMild conditions, 17-hour kinetic study) was 11%. The photostability [4] was “photostable”, the λex max ([5]; Acetonitrile) was 494 nm and the λex max ([5]; H2O) was 486 nm. For the same molecule, the λex max ([5]; Isopropyl-alcohol) was 523 nm, the λex max ([5]; Methanol) was 512 nm and the λex max ([5]; THF) was 514 nm. The Kd [6] was 2500 nM, the λem [6] was 605 nm and the λex [6] was 532 nm. For the same molecule, the “λex (value in parentheses)” value [6] was “(493) nm”.

For `CCN(CC)c1ccc2cc(/C=C/c3sc4ccccc4[n+]3C)c(=O)oc2c1` [BtC], the Kd ([1]; 1 μM dye) was 112 ± 8.9 nM, the “% D (6 → 0.5 μM)” value [1, 9] was 52% and the “% D (6 → 0.5 μM)” value [1, 10] was 93%. The Kd [6] was 3200 nM, the λem [6] was 640 nm and the λex [6] was 580 nm. For the same molecule, the “λex (value in parentheses)” value [6] was “(549) nm”.

In the case of `Cc1ccc2c(c1)sc(-c1ccc(N(C)C)cc1)[n+]2C` [ThT, Thioflavin T], the Kd ([1]; 1 μM dye) is reported as 292 nM, the “% D (6 → 0.5 μM)” value [1, 9] is reported as 6% and the “% D (6 → 0.5 μM)” value [1, 10] is reported as 23%. The Kd [6] was 10900 nM, the λem [6] was 488 nm and the λex [6] was 448 nm. For the same molecule, the “λex (value in parentheses)” value [6] was “(412) nm”.

For “TBA-15: Native thrombin binding aptamer 5′-GGTTGGTGTGGTTGG”, the Kd [7] is listed as 330 nM and the “Tm GQ” value [8] is listed as 53.5 °C.
